These compounds were tested on NCI-H226 (assay: 72H TEAD Proliferation Assay (Cell Titer Glo 2.0)). Details: Homo sapiens, CTG 2.0, cell line not given (NCI-H226 responsive, NCI-H28 non-responsive).
Format: cell-based
Outline: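 Growth read-out is ATP luminescence (CellTiter-Glo 2.0) after 72 h compound exposure, corrected for no-CTG background and day-0 values, with GI50 from nonlinear regression. Sensitive line NCI-H226 (NF2-deficient); non-responsive NCI-H28 (NF2 wild type) distinguishes TEAD-driven from nonspecific growth inhibition.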

SMILES	GI50
O=C(/C=C/CF)NCc1nc(-c2ccc(C(F)(F)F)cc2)c2cccnc2n1 [I-308, (E)-4-fluoro-N-((4-(4-(trifluoromethyl)phenyl)pyrido[2,3-d]pyrimidin-2-yl)methyl)but-2-enamide]	≤ 1 µM

Same assay, conditions: Homo sapiens, NCI-H226, 72 h, CTG 2.0, cell line not given (NCI-H226 responsive, NCI-H28 non-responsive)

SMILES	GI50
O=C(O)c1ccc2c(c1)nc(NCCCC(F)(F)F)c1cccn12 [I-1, 4-((4,4,4-Trifluorobutyl)amino) pyrrolo[1,2-a]quinoxaline-7-carboxylic acid]	> 10 µM
Cc1ccc(-c2nc3cc(C(=O)O)ccc3n3ccnc23)cc1 [I-66, 4-(p-Tolyl)imidazo[1,2-a]quinoxaline-7-carboxylic acid]	5 to 10 µM
CC(C)C12CC(Nc3nc4cc(C(=O)O)ccc4n4cccc34)(C1)C2 [I-22, 4-((3-Isopropylbicyclo[1.1.1]pentan-1-yl)amino)pyrrolo[1,2-a]quinoxaline-7-carboxylic acid]	1 to 5 µM
N#Cc1cc(C(F)(F)F)ccc1-c1nc2cc(C(=O)O)ccc2n2cccc12 [I-54, 4-(2-Cyano-4-(trifluoromethyl)phenyl)pyrrolo[1,2-a]quinoxaline-7-carboxylic acid]	5 to 10 µM
CC(C)(C)c1ccc(-c2nc3cc(C(N)=O)ccc3n3ccnc23)cc1 [I-73, 4-(4-(tert-Butyl)phenyl)imidazo[1,2-a]quinoxaline-7-carboxamide]	1 to 5 µM
CC(C)(C)c1ccc(-c2nc3cc(-c4nnc(N)o4)ccc3n3cccc23)cc1 [I-189, 5-(4-(4-(tert-butyl)phenyl)pyrrolo[1,2-a]quinoxalin-7-yl)-1,3,4-oxadiazol-2-amine]	5 to 10 µM
COc1ccc(-c2nc3cc(C(=O)O)ccc3n3cccc23)cc1 [I-46, 4-(4-Methoxyphenyl)pyrrolo[1,2-a]quinoxaline-7-carboxylic acid]	> 10 µM
O=C(O)c1ccc2c(c1)nc(OCc1cccc(C(F)(F)F)c1)c1cccn12 [I-131, 4-((3-(Trifluoromethyl)benzyl)oxy)pyrrolo[1,2-a]quinoxaline-7-carboxylic acid]	> 10 µM
CCC(=O)Nc1ccc2c(c1)nc(-c1ccc(C(C)(C)C)cc1)c1nccn12 [I-134, N-(4-(4-(tert-butyl)phenyl)imidazo[1,2-a]quinoxalin-7-yl)propionamide]	1 to 5 µM
C=CC(=O)NC1CCCc2ccc(-c3ccc(C(F)(F)F)cc3)nc21 (stereo not shown) [I-412, N-(2-(4-(trifluoromethyl)phenyl)-5,6,7,8-tetrahydroquinolin-8-yl)acrylamide]	5 to 10 µM
O=C(O)c1ccc2c(c1)nc(N1CCC(c3ccccc3)CC1)c1cccn12 [I-13, 4-(4-Phenylpiperidin-1-yl)pyrrolo[1,2-a]quinoxaline-7-carboxylic acid]	> 10 µM
COc1cc(-c2ccc(C(F)(F)F)cc2)nc2cc(C(=O)NC(CO)C3CCOCC3)ccc12 (single isomer, unassigned) [I-368, N-(2-hydroxy-1-(tetrahydro-2H-pyran-4-yl)ethyl)-4-methoxy-2-(4-(trifluoromethyl)phenyl)quinoline-7-carboxamide]	1 to 5 µM
COc1cnc(-c2ccc(C(C)(C)C)cc2)c2nccn12 [I-150, 8-(4-(tert-Butyl)phenyl)-5-methoxyimidazo[1,2-a]pyrazine]	> 10 µM
CC(C)(C)c1ccc(-c2nc(/C=C/C(=O)O)cn3ccnc23)cc1 [I-152, (E)-3-(8-(4-(tert-butyl)phenyl)imidazo[1,2-a]pyrazin-6-yl)acrylic acid]	1 to 5 µM
Cc1cc(-c2ccc(OC(F)(F)F)cc2)nc2cc(C(=O)N[C@H](C)CO)ccc12 [I-255, (R)—N-(1-hydroxypropan-2-yl)-4-methyl-2-(4-(trifluoromethoxy)phenyl)quinoline-7-carboxamide]	1 to 5 µM
CC(C)(C)c1ccc(-c2ncn3cc(C(=O)O)ccc23)cc1 [I-144, 1-(4-(tert-Butyl)phenyl)imidazo[1,5-a]pyridine-6-carboxylic acid]	> 10 µM
Cn1cnc(-c2cc(-c3ccc(C(F)(F)F)cc3)nc3cc(C(=O)O)ccc23)c1 [I-388, 4-(1-methyl-1H-imidazol-4-yl)-2-(4-(trifluoromethyl)phenyl)quinoline-7-carboxylic acid]	1 to 5 µM
O=C(O)c1ccc2c(c1)nc(N1CCN(C3CC3)CC1)c1cccn12 [I-40, 4-(4-Cyclopropylpiperazin-1-yl) pyrrolo[1,2-a]quinoxaline-7-carboxylic acid]	1 to 5 µM
COc1ccc(-c2nc3cc(C(=O)O)ccc3n3ccnc23)cc1 [I-64, 4-(4-Methoxyphenyl)imidazo[1,2-a]quinoxaline-7-carboxylic acid]	> 10 µM
CC(C)(C)c1ccc(-c2cncc3cc(C(=O)O)ccc23)cc1 [I-95, 4-(4-(tert-Butyl)phenyl)isoquinoline-7-carboxylic acid]	> 10 µM
O=C(O)c1ccc2c(c1)nc(-c1c(Cl)cc(C(F)(F)F)cc1Cl)c1cccn12 [I-201, 4-(2,6-Dichloro-4-(trifluoromethyl)phenyl)pyrrolo[1,2-a]quinoxaline-7-carboxylic acid]	5 to 10 µM

The remaining lines, values ahead:

GI50	SMILES
1 to 5 µM	O=C(O)c1ccc2c(c1)nc(-c1ccc(C(F)(F)F)cc1Cl)c1cccn12 [I-53, 4-(2-Chloro-4-(trifluoromethyl)phenyl)pyrrolo[1,2-a]quinoxaline-7-carboxylic acid]
≤ 1 µM	CC[C@H](CO)NC(=O)c1ccc2c(C3CC3)cc(-c3ccc(C(F)(F)F)cc3)nc2c1 [I-399, (R)-4-cyclopropyl-N-(1-hydroxybutan-2-yl)-2-(4-(trifluoromethyl)phenyl)quinoline-7-carboxamide]
≤ 1 µM	C=CC(=O)NCc1cn2c(F)ccc2c(-c2ccc(C(C)(C)C)cc2)n1 [I-409, N-((1-(4-(tert-butyl)phenyl)-6-fluoropyrrolo[1,2-a]pyrazin-3-yl)methyl)acrylamide]
1 to 5 µM	C=CC(=O)NCc1cn2ccnc2c(-c2ccc(C(F)(F)F)cn2)n1 [I-313, N-((8-(5-(trifluoromethyl)pyridin-2-yl)imidazo[1,2-a]pyrazin-6-yl)methyl)acrylamide]
1 to 5 µM	O=C(O)c1ccc2c(c1)nc(-c1ccc(C(F)(F)F)cc1)c1nccn12 [I-61, 4-(4-(Trifluoromethyl)phenyl)imidazo[1,2-a]quinoxaline-7-carboxylic acid]
≤ 1 µM	CC[C@H](CO)NC(=O)c1ccc2c(C)cc(-c3ccc(C(F)(F)F)cc3)nc2c1 [I-265, (R)—N-(1-hydroxybutan-2-yl)-4-methyl-2-(4-(trifluoromethyl)phenyl)quinoline-7-carboxamide]
≤ 1 µM	COc1cc(-c2ccc(C(F)(F)F)cc2)nc2cc(C(=O)N[C@@H](CO)c3ccncc3)ccc12 [I-366, (R)—N-(2-hydroxy-1-(pyridin-4-yl)ethyl)-4-methoxy-2-(4-(trifluoromethyl)phenyl)quinoline-7-carboxamide]
1 to 5 µM	CC(=O)Nc1ccc2c(c1)nc(-c1ccc(C(C)(C)C)cc1)c1nccn12 [I-135, N-(4-(4-(tert-butyl)phenyl)imidazo[1,2-a]quinoxalin-7-yl)acetamide]
≤ 1 µM	COc1cc(-c2ccc(C(F)(F)F)cc2)nc2cc(C(=O)N[C@@H](CO)c3ccc(O)cc3)ccc12 [I-363, (R)—N-(2-hydroxy-1-(4-hydroxyphenyl)ethyl)-4-methoxy-2-(4-(trifluoromethyl)phenyl)quinoline-7 carboxamide]
≤ 1 µM	COc1cc(-c2ccc(C(F)(F)F)cc2)nc2cc(C(=O)N[C@@H](CO)C3CC3)ccc12 [I-344, (R)—N-(1-cyclopropyl-2-hydroxyethyl)-4-methoxy-2-(4-(trifluoromethyl)phenyl)quinoline-7-carboxamide]
1 to 5 µM	Cc1cc(-c2ccc(C(C)(C)C)cc2)nc2cc(C(=O)O)ccc12 [I-88, 2-(4-(tert-Butyl)phenyl)-4-methylquinoline-7-carboxylic acid]
≤ 1 µM	C=CC(=O)Nc1ccc2cnc(-c3ccc(C(C)(C)C)cc3)nc2c1 [I-80, N-(2-(4-(tert-butyl)phenyl)quinazolin-7-yl)acrylamide]
≤ 1 µM	C=CC(=O)NCc1cn2ccnc2c(-c2ccc(C(F)(F)F)cc2F)n1 [I-175, N-((8-(2-Fluoro-4-(trifluoromethyl)phenyl)imidazo[1,2-a]pyrazin-6-yl)methyl)acrylamide]
≤ 1 µM	FC(F)(F)c1ccc(-c2nc(C3CC(Br)=NO3)cn3ccnc23)cc1 (stereo not shown) [I-176, 3-bromo-5-(8-(4-(trifluoromethyl)phenyl)imidazo[1,2-a]pyrazin-6-yl)-4,5-dihydroisoxazole]
≤ 1 µM	C=CC(=O)NCc1nc(-c2ccc(C(F)(F)F)cc2)c2ccc(F)cc2n1 [I-445, N-((7-fluoro-4-(4-(trifluoromethyl)phenyl)quinazolin-2-yl)methyl)acrylamide]
≤ 1 µM	COc1nc(-c2ccc(C(F)(F)F)cc2)nc2cc(C(=O)O)ccc12 [I-433, 4-methoxy-2-(4-(trifluoromethyl)phenyl)quinazoline-7-carboxylic acid]
≤ 1 µM	COCc1cc(-c2ccc(C(F)(F)F)cc2)nc2cc(C(=O)O)ccc12 [I-270, 4-(methoxymethyl)-2-(4-(trifluoromethyl)phenyl)quinoline-7-carboxylic acid]
≤ 1 µM	O=C(O)c1ccc2c(OC3CC3)cc(-c3ccc(C(F)(F)F)cc3)nc2c1 [I-395, 4-cyclopropoxy-2-(4-(trifluoromethyl)phenyl)quinoline-7-carboxylic acid]
≤ 1 µM	C=CC(=O)NCc1cn2ccnc2c(Oc2cccc(C(F)(F)F)c2)n1 [I-171, N-((8-(3-(trifluoromethyl)phenoxy)imidazo[1,2-a]pyrazin-6-yl)methyl)acrylamide]
≤ 1 µM	C[C@H](CO)NC(=O)c1ccc2c(C3CC3)cc(-c3ccc(C(F)(F)F)cc3)nc2c1 [I-386, (R)-4-cyclopropyl-N-(1-hydroxypropan-2-yl)-2-(4-(trifluoromethyl)phenyl)quinoline-7-carboxamide]
≤ 1 µM	C=CC(=O)Nc1ccc2c(c1)nc(-c1ccc(C(F)(F)F)cc1F)c1nccn12 [I-133, N-(4-(2-Fluoro-4-(trifluoromethyl)phenyl)imidazo[1,2-a]quinoxalin-7-yl)acrylamide]
